Results reported in patent US20110152275A1, “AGENT FOR MAINTENANCE OF INDUCED REMISSION” (priority 2008, published 2011).

Test system: rat adjuvant-induced arthritis model
Experiment: Rat adjuvant-induced arthritis model
Assay type: in vivo
Settings: for overall effect on the arthritis (summary): summary of leg volume results, injected and non-injected legs; for infiltration of inflammatory cells into the joint after switching from MTX: MTX 0th to 10th day then Compound 1 1 mg/kg to 24th day
Procedure: There were intracutaneously injected 0.05 mL (0.6 mg/animal) each of a suspension of killed M. butyricum (12 mg/mL) in liquid paraffin into the back of the right hind legs of 8-week-old female rats of LEW/CrlCrlj line (available from Japan Charles-River Co., Ltd.) to thus induce the arthritis (the 0th day). Then 0.5 mL (per body weight of 100 g) each of an agent solution prepared using a 0.5% methyl cellulose (0.5% MC) was orally administered to each of the test animals. To the adjuvant-injected control animal group, there was administered only the 0.5% MC. Methotrexate (MTX, available from Sigma Company) (0.1 mg/kg) was administered to each test animal, once a day, during the term extending from the 0th day to the 10th day, every day. On or after the 11th day, (R)-2-amino-5-[2-chloro-4-(3-trifluoro methylphenylthio)phenyl]-2-methyl-1-pentanol hydrochloride (hereunder simply referred to as “Compound 1”) (1 mg/kg) was administered to the test animals, instead of methotrexate, once a day up to the 24th day every day. The evaluation of the arthritis was carried out according to the following procedures: The volumes of the right and left hind legs of each test animal were determined on the 0th, 8th, 11th, 14th, 18th, 21st and 25th days of the testing period using a volume-determining meter (MK-550 available from Muromachi Machine, Co., Ltd.) and then the rate of increase in the volume of the hind leg was determined for each of the right and left hind legs of each individual test animal. Then there was prepared a pathological specimen (stained with hematoxylin eosin) of a joint extending from the distal end of the shinbone to the tarsalia to evaluate the degree of the infiltration of inflammatory cells into the joint.
In case of the adjuvant-induced arthritis, acute inflammation, whose far advanced stage is observed on around 3rd day, is recognized on the adjuvant-injected leg and thereafter it is once degenerated. Then the systemic inflammation due to the systemic immunological abnormality is initiated on about 10th day and as a result, the onset of arthritis is observed on the non-injected leg in parallel with the injected leg.

[1] = adjuvant-injected leg, MTX 0.1 mg/kg orally once a day, 0th to 10th day, observed 8th to 11th day, FIG. 1

Compound: CN(Cc1cnc2nc(N)nc(N)c2n1)c1ccc(C(=O)N[C@@H](CCC(=O)O)C(=O)O)cc1 [MTX, Methotrexate]
- symptom of arthritis after stopping administration (adjuvant-injected leg, MTX 0th to 10th day, discontinued on and after 11th day, FIG. 1): the symptom of arthritis was again advanced
- increase in the volume of the leg [1]: there was not observed any increase in the volume of the leg
- progress of the arthritis [1]: the progress of the arthritis was found to be inhibited
- infiltration of inflammatory cells into the joint (injected leg, pathological specimen (hematoxylin eosin), MTX 0th to 10th day, observed 11th day, FIG. 3B): any infiltration of inflammatory cells into the joint was suppressed
- infiltration of inflammatory cells into the joint after stopping administration (injected leg, pathological specimen, MTX 0th to 10th day then stopped, observed 25th day, FIG. 3D): the conspicuous infiltration of inflammatory cells into the joint was recognized
- arthritis after stopping administration (non-injected leg, MTX 0th to 10th day, discontinued on and after 11th day, FIG. 2): the arthritis was initiated when stopping the administration of MTX
- onset of the arthritis (non-injected leg, MTX 0.1 mg/kg orally 0th to 10th day, at the 11th day, FIG. 2): the onset of the arthritis in the non-injected leg was suppressed
- overall effect on the arthritis (summary): could suppress the onset and progress of arthritis, but the arthritis was immediately advanced when stopping the administration thereof

Compound: C[C@](N)(CO)CCCc1ccc(Sc2cccc(C(F)(F)F)c2)cc1Cl.Cl [Compound 1, (R)-2-amino-5-[2-chloro-4-(3-trifluoromethylphenylthio)phenyl]-2-methyl-1-pentanol hydrochloride]
- progress of the arthritis after switching from MTX (adjuvant-injected leg, MTX 0.1 mg/kg 0th to 10th day, then Compound 1 1 mg/kg orally once a day 11th to 24th day, FIG. 1): the progress of the arthritis was inhibited
- infiltration of inflammatory cells into the joint after switching from MTX (injected leg, pathological specimen, observed 25th day, FIG. 3E): any infiltration of inflammatory cells into the joint was suppressed
- onset of the arthritis after switching from MTX (non-injected leg, MTX 0.1 mg/kg 0th to 10th day, then Compound 1 1 mg/kg orally once a day 11th to 24th day, FIG. 2): the onset of the arthritis was suppressed
- infiltration of inflammatory cells into the joint after switching from MTX (non-injected legs, pathological specimen): any infiltration of inflammatory cells into the joint was found to be suppressed
- overall effect on the arthritis (summary): could maintain the MTX-suppressed condition of the symptom of the arthritis
